Target: T1, Neutrophil elastase (Homo sapiens, UniProt P08246)
T1 sequence (P08246 whole entry): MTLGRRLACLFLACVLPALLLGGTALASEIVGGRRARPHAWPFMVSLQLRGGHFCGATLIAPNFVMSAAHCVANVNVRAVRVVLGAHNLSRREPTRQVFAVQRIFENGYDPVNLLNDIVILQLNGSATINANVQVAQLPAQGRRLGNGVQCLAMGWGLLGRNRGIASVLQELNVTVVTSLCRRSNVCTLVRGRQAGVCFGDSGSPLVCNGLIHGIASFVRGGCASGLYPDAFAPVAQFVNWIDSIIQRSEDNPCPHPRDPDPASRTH
Assay: Tested for the rate constant against Human Leukocyte Elastase (HLE) inactivation
Conditions: read-out: kon (M-1-s-1)

`CO[C@H]1C(=O)N2C(C(=O)N3CCCC3C(=O)O)=C(COC(C)=O)CS(=O)(=O)[C@H]12` (stereo partly drawn) [1-(3-Acetoxymethyl-7-methoxy-5,5,8-trioxo-5lambda*6*-thia-1-aza-bicyclo[4.2.0]oct-2-ene-2-carbonyl)-pyrrolidine-2-carboxylic acid(L-658,758)] showed a kon of 1800 M⁻¹ s⁻¹.
